Results as given in article PMC4389443 (Respiratory Research, 2015).
Entries after “also recorded” stand apart in the source; their conditions may differ. Read-outs that look alike come from different tables or passages of the source.

Key:
[1] = target: T1, VAP-1/SSAO in gonadal fat tissue homogenate (Oryctolagus cuniculus, UniProt A0A5F9CS97); experiment: SSAO activity, gonadal fat tissue homogenate; type: biochemical; conditions: rabbit
T1 sequence (A0A5F9CS97 1-763): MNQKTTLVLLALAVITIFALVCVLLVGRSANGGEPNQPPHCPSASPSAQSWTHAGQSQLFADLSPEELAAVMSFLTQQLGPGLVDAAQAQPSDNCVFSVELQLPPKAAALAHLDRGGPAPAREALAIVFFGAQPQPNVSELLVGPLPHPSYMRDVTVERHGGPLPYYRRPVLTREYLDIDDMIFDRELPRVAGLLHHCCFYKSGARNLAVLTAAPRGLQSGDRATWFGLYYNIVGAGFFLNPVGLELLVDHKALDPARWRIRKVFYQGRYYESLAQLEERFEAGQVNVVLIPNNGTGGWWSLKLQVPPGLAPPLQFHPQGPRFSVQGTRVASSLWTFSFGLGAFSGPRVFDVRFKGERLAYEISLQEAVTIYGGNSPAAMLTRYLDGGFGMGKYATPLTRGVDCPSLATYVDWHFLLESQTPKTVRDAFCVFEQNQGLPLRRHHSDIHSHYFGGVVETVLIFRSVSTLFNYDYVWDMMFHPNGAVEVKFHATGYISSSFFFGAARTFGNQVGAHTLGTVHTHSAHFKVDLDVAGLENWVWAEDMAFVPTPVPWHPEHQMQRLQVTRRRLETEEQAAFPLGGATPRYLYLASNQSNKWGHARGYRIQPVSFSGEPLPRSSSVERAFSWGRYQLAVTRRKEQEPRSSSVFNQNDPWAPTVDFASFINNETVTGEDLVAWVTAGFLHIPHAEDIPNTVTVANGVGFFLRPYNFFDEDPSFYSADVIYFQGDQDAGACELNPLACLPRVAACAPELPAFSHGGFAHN

[2] = target: T2, Recombinant retina specific amine oxidase (AOC2) (Homo sapiens, UniProt O75106); experiment: AOC2 enzyme activity assay; type: biochemical
T2 sequence (O75106 1-756): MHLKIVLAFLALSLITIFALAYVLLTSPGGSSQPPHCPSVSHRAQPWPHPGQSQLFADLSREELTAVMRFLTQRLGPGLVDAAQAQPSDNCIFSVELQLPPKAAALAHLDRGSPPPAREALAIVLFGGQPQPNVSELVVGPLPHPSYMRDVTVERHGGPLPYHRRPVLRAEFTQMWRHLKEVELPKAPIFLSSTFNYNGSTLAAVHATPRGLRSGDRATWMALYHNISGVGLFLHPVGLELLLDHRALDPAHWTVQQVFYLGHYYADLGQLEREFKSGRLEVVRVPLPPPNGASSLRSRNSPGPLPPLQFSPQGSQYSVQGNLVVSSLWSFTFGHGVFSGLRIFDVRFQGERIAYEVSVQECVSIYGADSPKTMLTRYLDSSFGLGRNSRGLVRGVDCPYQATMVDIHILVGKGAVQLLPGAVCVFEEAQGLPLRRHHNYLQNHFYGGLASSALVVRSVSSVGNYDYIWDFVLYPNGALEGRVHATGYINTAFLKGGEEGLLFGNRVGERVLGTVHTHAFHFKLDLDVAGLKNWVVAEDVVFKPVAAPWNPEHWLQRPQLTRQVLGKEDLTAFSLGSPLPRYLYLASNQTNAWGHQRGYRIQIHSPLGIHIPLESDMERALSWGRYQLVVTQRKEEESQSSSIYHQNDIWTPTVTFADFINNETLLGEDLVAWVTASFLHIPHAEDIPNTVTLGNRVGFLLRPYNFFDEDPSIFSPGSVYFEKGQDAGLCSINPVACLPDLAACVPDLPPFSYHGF

carbonic anhydrase II = carbonic anhydrase II (Homo sapiens, UniProt P00918); experiment: Carbonic anhydrase II activity; type: biochemical
Plasma stability [3] = type: in vitro ADME; conditions: human plasma, 1 hour incubation
Plasma stability [4] = type: in vitro ADME; conditions: dog plasma, 1 hour incubation
Water solubility = type: physicochemical
Swiss mice = experiment: LPS airway inflammation, 24 hour time point; type: in vivo, mouse; conditions: 24 hours after LPS
Experimental: Given the short half-life of PXS-4728, a second dose was administered to ensure that newly synthesized SSAO would also be blocked.

BALB/c mice [5] = experiment: House dust mite/Rhinovirus exacerbated asthma model; type: in vivo, mouse; conditions: 24 hours post RV1b infection
Experimental: Study performed at the University of Newcastle under local ethics committee. BALB/c mice were sensitized and challenged intranasally to 50 μg of crude HDM extract (Dermatophagoides pteronyssinus extract was obtained from Greer Laboratories) on days 0, 1 and 2 followed by four exposures of 5 μg HDM daily from day 14 to day 17 delivered in 50 μl of sterile saline. Animals were then infected on day 18 with infective Human Rhinovirus 1b RV1B41 (2.5 × 10^6 median tissue culture infective dose) intranasally. Mice were intranasally administered 50 μl infective or ultraviolet light (UV)–inactivated RV1B41. Mice were euthanized 24 hours after the rhinovirus challenge. BAL analysis was performed for total and differential counts and airway hyperreactivity (AHR) was assessed invasively by measurement of total lung resistance and dynamic compliance (BUXCO) in response to methacholine challenge as previously described. […]. Dose of azithromycin was chosen based on previously described findings, in respiratory viral infection models.

BALB/c mice [6] = experiment: Klebsiella pneumoniae lung infection
BALB/c mice [7] = experiment: LPS airway inflammation, 6 hour time point; conditions: 6 hours after LPS
C57/BL6 mice = experiment: Cecal ligation and puncture (CLP) induced sepsis
[8] = 4 mg/kg pre-treatment, 6 mg/kg at 6 hours
[9] = 24 hours, PXS-4728A 6 mg.kg^−1, dexamethasone 10 mg.kg^−1, oral 1 hour prior to infection
[10] = 6 hours, 6 mg.kg^−1 oral 1 hour prior to surgery
[11] = 6 hours, PXS-4728A 6 mg.kg^−1, dexamethasone 5 mg.kg^−1, oral 1 hour prior to surgery

With `CC(C)(C)NC(=O)c1ccc(OC/C(=C/F)CN)cc1` [PXS-4728A] the IC50 [1] was < 0.01 µM, the IC50 [2] was 2.76 µM and the “Activity for carbonic anhydrase II” value (carbonic anhydrase II) was “removing all activity”. The “Plasma stability, remaining” value (Plasma stability [3]) was > 90%, the “Plasma stability, remaining” value (Plasma stability [4]) was > 90% and the solubility (Water solubility; Figure 1, read-out: Solubility (H2O)) was > 10 mg/mL. The solubility (Water solubility; pH 7.4, aqueous buffer, read-out: Water solubility) was > 10 mg/mL, the Circulating neutrophils (Swiss mice) was “had no effect” and the “Total cells in blood” value (Swiss mice) was “had no effect”. For the same compound, the “Influx of neutrophils in BALF” value (Swiss mice; [8]) was “reduced”, the “Influx of total cells in BALF” value (Swiss mice; [8]) was “reduced” and the “Airways hyperreactivity to methacholine challenge” value (BALB/c mice [5]; PXS-4728A 2, azithromycin 25 mg.kg^−1 ip.) was “significantly reduced”. The “Total BALF neutrophils” value (BALB/c mice [5]; PXS-4728A 2, dexamethasone 2, azithromycin 25 mg.kg^−1 ip.) was “reduced”, the “Neutrophil migration into the airway spaces (BALF)” value (BALB/c mice [6]; [9]) was “significantly dampened” and the “Total leukocyte migration into the airway spaces (BALF)” value (BALB/c mice [6]; [9]) was “significantly dampened”. For the same compound, the “Log 10-CFU in the lung (bacterial load), average” value (BALB/c mice [6]; 24 hours, PXS-4728A 6 mg.kg^−1, dexamethasone 10 mg.kg^−1, vehicle 7.59) was 8.27 LOG 10-CFU, the Survival (BALB/c mice [6]; treated 1 hour prior to infection and daily thereafter) was “not compromised” and the “Influx of neutrophils in BALF” value (BALB/c mice [7]; PXS-4728A 0.2 or 2 mg.kg^−1, dexamethasone 10 mg.kg^−1, oral 1 hour prior) was “dampened migration significantly; also recorded: concentration-dependently reduced”. For the same compound, the “Influx of total cells in BALF” value (BALB/c mice [7]; PXS-4728A 0.2 or 2 mg.kg^−1 oral 1 hour prior) was “concentration-dependently reduced”, the “Myeloperoxidase in the lung” value (C57/BL6 mice; [10]) was “reduction” and the “Neutrophils in bronchoalveolar lavage” value (C57/BL6 mice; [10]) was “reduction”. For the same compound, the “Total cells in bronchoalveolar lavage” value (C57/BL6 mice; [10]) was “reduction”, the Peritoneal neutrophils (C57/BL6 mice; [11]) was “not affected” and the “Total peritoneal inflammatory cells” value (C57/BL6 mice; [11]) was “not affected”. The Survival rate (C57/BL6 mice; treated 1 hour prior and daily thereafter, control animals 50%, p = 0.057) was 90%.
